Data published in patent US6831079B1, “Vasopressin agonist formulation and process” (American Cyanamid Company, priority 1999, dated 2004).

Biological target: Vasopressin V2 (Rattus norvegicus, UniProt Q00788)
Assay: Vasopressin V2 agonist effects in normal conscious water-loaded rats
Format: in vivo
Parameters: from tissue; host or cells: whole living Sprague-Dawley rat; the receptor is the animal's own (renal, by own knowledge)
Conditions: Sprague-Dawley (CD) rats; for Osmolality (% Increase): change in osmolality as percent of control; for Urine Volume (% decrease): vs. control
Description: Vasopressin V2 Agonist Effects of Test Compounds in Normal Conscious Water-loaded Rats
Male or female normotensive Sprague-Dawley rats (Charles River Laboratories, Inc., Kingston, N.Y.) of 350-500 g body weight were supplied with standard rodent diet (Purina Rodent Lab. Chow 5001) and water ad libitum. On the day of test, rats were placed individually into metabolic cages equipped with devices to separate the feces from the urine and containers for collection of urine. […] The vehicle used was 20% dimethylsulfoxide (DMSO) in 2.5% preboiled corn starch. Thirty minutes after dosing the test compound, rats were gavaged with water at 30 ml/kg into the stomach using a feeding needle. During the test, rats were not provided with water or food. Urine was collected for four hours after dosing of the test compound. At the end of four hours, urine volume was measured. Urinary osmolality was determined using a Fiske One-Ten Osmometer (Fiske Associates, Norwood, Mass., 02062) or an Advanced CRYOMATIC Osmometer, Model 3C.2 (Advanced Instruments, Norwood, Mass.). Determinations of Na^+, K^+ and Cl^− ion were carried out using ion specific electrodes in a Beckman SYNCHRON EL-ISE Electrolyte System analyzer. The urinary osmolality should increase proportionally. In the screening test, two rats were used for each compound. If the difference in the urine volume of the two rats was greater than 50%, a third rat was used.

[1] = 10 mg/kg oral, urine collected four hours

Sequence of Vasopressin V2 (Q00788 whole entry): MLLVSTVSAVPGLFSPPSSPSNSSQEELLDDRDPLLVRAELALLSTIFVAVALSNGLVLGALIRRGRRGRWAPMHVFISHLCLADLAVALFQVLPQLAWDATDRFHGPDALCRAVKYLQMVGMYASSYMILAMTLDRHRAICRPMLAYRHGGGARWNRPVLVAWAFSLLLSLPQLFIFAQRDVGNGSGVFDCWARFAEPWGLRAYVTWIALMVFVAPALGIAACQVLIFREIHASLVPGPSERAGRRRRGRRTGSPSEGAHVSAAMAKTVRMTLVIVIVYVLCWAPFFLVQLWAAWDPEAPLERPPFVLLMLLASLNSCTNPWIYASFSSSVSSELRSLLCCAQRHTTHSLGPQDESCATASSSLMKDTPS

Osmolality (% Increase) (10 mg/kg oral) [%] | Urine Volume (% decrease) [1] [%] | Osmolality (% Increase) (1 mg/kg) | Urine Volume (% decrease) (1 mg/kg) | Structure (SMILES)
413 | 61 | – | – | Cc1ccn(-c2ccc(C(=O)N3Cc4cccn4Cc4ccccc43)c(Br)c2)n1 [Example 90]
– | – | 306% (1 mg/kg) | 80% (1 mg/kg) | Cc1ccn(-c2ccc(C(=O)N3Cc4cccn4Cc4ccccc43)c(C(F)(F)F)c2)n1 [Example 2, [4-(3-Methyl-pyrazol-1-yl)-2-trifluoromethyl-phenyl](5H,11H-pyrrolo[2,1-c]-[1,4]benzodiazepin-10-yl)-methanone]
38 | 47 | – | – | O=C(c1ccc(-n2cccc2)cc1Cl)N1Cc2cccn2Cc2ccccc21 [Example 15, (2-Chloro-4-pyrrol-1-yl-phenyl)-(5H,11H-pyrrolo[2,1-c][1,4]benzodiazepin-10-yl)-methanone]
240 | 58 | – | – | Cc1cnn(-c2ccc(C(=O)N3Cc4cccn4Cc4ccccc43)c(C(F)(F)F)c2)c1 [Example 3, [4-(4-Methyl-pyrazol-1-yl)-2-trifluoromethyl-phenyl]-(5H,11H-pyrrolo[2,1-c][1,4]benzodiazepin-10-yl)-methanone]
69 | 22 | – | – | O=C(c1ccc(F)cc1F)N1Cc2cccn2Cc2ccccc21 [Example 91, (2,4-Difluoro-phenyl)-(5H,11H-pyrrolo[2,1-c][1,4]benzodiazepin-10-yl)-methanone]
231 | 56 | – | – | O=C(c1ccc(-n2ccc(C3CC3)n2)cc1C(F)(F)F)N1Cc2cccn2Cc2ccccc21 [Example 5, [4-(3-Cyclopropyl-pyrazol-1-yl)-2-trifluoromethy-phenyl]-(5H,11H-pyrrolo[2,1-c][1,4]benzodiazepin-10-yl)-methanone]
137 | 13 | – | – | O=C(c1ccc(-n2cncn2)cc1C(F)(F)F)N1Cc2cccn2Cc2ccccc21 [Example 7, (5H,11H-Pyrrolo[2,1-c][1,4]benzodiazepin-10-yl)-(4-[1,2,4]triazol-1-yl-2-trifluoromethylphenyl)-methanone]

Further lines, the compound ahead of its results:

Structure (SMILES) | Osmolality (% Increase) (10 mg/kg oral) [%] | Urine Volume (% decrease) [1] [%] | Osmolality (% Increase) (1 mg/kg) | Urine Volume (% decrease) (1 mg/kg)
Cc1ccc(F)cc1C(=O)n1ccc(-c2ccc(C(=O)N3Cc4cccn4Cc4ccccc43)cc2)n1 [Example 35, {4-[1-(5-Fluoro-2-methyl-benzoyl)-1H-pyrazol-3-yl]-phenyl}-(5H,11H-pyrrolo[2,1-c][1,4]benzodiazepin-10-yl)-methanone] | 308 | 63 | – | –
COc1cc(-n2ccc(C)n2)ccc1C(=O)N1Cc2ccc(CN(C)C)n2Cc2ccccc21 [Example 108, (3-Dimethylaminomethyl-5H,11H-pyrrolo[2,1-c][1,4]benzodiazepin-10-yl)[2-methoxy-4-(3-methyl-pyrazol-1-yl)-phenyl]-methanone] | 145 | 30 | – | –
O=C(c1ccc(-c2ccn(C(=O)Cc3ccc(Cl)cc3Cl)n2)cc1)N1Cc2cccn2Cc2ccccc21 [Example 39, 2-(2,4-Dichloro-phenyl)-1-{3-[4-(5H,11H-pyrrolo[2,1-c][1,4]benzodiazepine-10-carbonyl)-phenyl]-pyrazol-1-yl}-ethanone] | 253 | 69 | – | –
CCC(=O)n1ccc(-c2ccc(C(=O)N3Cc4cccn4Cc4ccccc43)cc2)n1 [Example 31, 1-{3-[4-(5H,11H-Pyrrolo[2,1-c][1,4]benzodiazepine-10-carbonyl)-phenyl]-pyrazol-1-yl}-propan-1-one] | 298 | 72 | – | –
Cc1ccn(-c2ccc(C(=O)N3Cc4nnnn4Cc4ccccc43)c(Cl)c2)n1 [Example 117] | 311 | 68 | – | –
O=C(c1ccc(-c2cc[nH]n2)cc1)N1Cc2cccn2Cc2ccccc21 [Example 24, [4-(1H-Pyrazol-3-yl)-phenyl]-(5H,11H-pyrrolo[2,1-c][1,4]benzodiazepin-10-yl)-methanone] | 159 | 47 | – | –
